Assay results taken from patent US11339142B2, “Di-substituted pyrazole compounds for the treatment of diseases” (FGH BIOTECH, INC., priority 2016, dated 2022).

Experiments:
SCD1 expression = experiment: Quantitative PCR (qPCR) inhibition assay, SCD1 mRNA expression in Hep G2 cells; assay type: cell-based; details: Homo sapiens, HepG2 cells, 24 hours incubation, mRNA by qPCR, read-out: SCD1 Inhibition Percentage (%) at 1 μM
Experimental: Hep G2 cells were obtained from ATCC and grown in DMEM supplemented with 10% FBS in a 5% CO2 incubator at 37° C. For the assay the cells were plated in 96 well plates at a concentration of 75,000 cells/well in DMEM with 5% FBS. The compounds were serially diluted in DMSO from 30 to 0.1 mM and then diluted 1:1000 in growth medium. The medium was added to the cells in duplicate 24 hours after plating. After 24 hours of incubation the RNA was isolated from the cells using the RNAqueous®-96 Total RNA Isolation Kit (Ambion). The eluted RNA was reverse transcribed using the Cells-to-Ct kit reverse transcriptase (Ambion). For the quantitative PCR the cDNA was analyzed using the Power SYBR® Green PCR Master Mix (Applied Biosystems) and gene specific primers. The reaction was run on an ABI7300 thermocycler and the instrument software was used to determine the Ct values. The fold change of mRNA expression relative to the vehicle control was calculated using the method by Livak. Primer sequence was as follows: SCD1, 5′-[…]-3′/5′-[…]-3′.
(§1) All data for Biological Examples 1a and 1b were measured in HepG2 cells. % inhibition of SCD1 expression, % inhibition of PCSK9 expression, and PCSK9 IC50 data are provided in Table 1. NA means the compound was not active at the concentration tested.

PCSK9 expression = experiment: Quantitative PCR (qPCR) inhibition assay, PCSK9 mRNA expression in Hep G2 cells; assay type: cell-based; details: Homo sapiens, HepG2 cells, 24 hours incubation, mRNA by qPCR; for inhibition at 0.32 µM: 320 nM, read-out: PCSK9 Inhibition Percentage (%) at 320 nM
Experimental: Hep G2 cells were obtained from ATCC and grown in DMEM supplemented with 5% FBS in a 5% CO2 incubator at 37° C. For the assay the cells were plated in 24 well plates at a concentration of 100,000 cells/well in DMEM with 5% FBS. The compounds were serially diluted in DMSO from 0.1 to 20 mM and then diluted 1:1000 in growth medium. The medium was added to the cells in duplicate 24 hours after plating. After 24 hours of incubation the RNA was isolated from the cells using the illustra RNAspin Mini kit (GE Healthcare). For the quantitative PCR the RNA was analyzed using the Power SYBR® Green PCR Master Mix (Applied Biosystems) and gene specific primers. The reaction was run on a StepOnePlus Real-Time PCR System (Thermo Fisher Scientific) and the instrument software was used to determine the Ct values. The fold change of mRNA expression relative to the vehicle control was calculated. Primer sequence was as follows: PCSK9, 5′-[…]-3′/5′-[…]-3′.
as §1

Row | Structure (SMILES) | inhibition at 1 µM (SCD1 expression) | inhibition at 0.32 µM (PCSK9 expression) | IC50 (PCSK9 expression)
1 | CCCn1cc(-n2cc(-c3ccc(S(=O)(=O)C(C)C)cc3Cl)cn2)ccc1=O [Example 17] | ≥ 40% | ≥ 40% | 150 to 600 nM
2 | CCCn1cc(-n2cc(-c3ccc(O[C@H](C)CC)cc3)cn2)ccc1=O [Example 41] | ≥ 40% | – | –
3 | CCCn1cc(-n2cc(-c3ccc(S(=O)(=O)C4CC(F)(F)C4)cc3C)cn2)ccc1=O [Example 80] | – | 10 to 40% | –
4 | CCCn1cc(-n2cc(-c3ccc(OC(C)C)nc3C)cn2)ccc1=O [Example 2] | ≥ 40% | – | –
5 | CCCn1cc(-n2cc(-c3ccc(OCC4CC4)nc3C)cn2)ccc1=O [Example 6] | ≥ 40% | 10 to 40% | 150 to 600 nM
6 | CCCn1cc(-n2cc(-c3ccc(OC(C)CO)cc3)cn2)ccc1=O (centres unmarked) [Example 42] | 10 to 40% | – | –
7 | Cc1nc(OC2CCCC2)ccc1-c1cnn(-c2ccc(=O)n(CC(C)C)c2)c1 [Example 50, 5-(4-(6-(cyclopentyloxy)-2-methylpyridin-3-yl)-1H-pyrazol-1-yl)-1-isobutylpyridin-2(1H)-one] | ≥ 40% | – | –
8 | CCCn1cc(-n2cc(-c3ccc(O[C@H](C)CC)cc3Cl)cn2)ccc1=O [Example 36] | ≥ 40% | – | –
9 | CCCn1cc(-n2cc(-c3ccc(S(=O)(=O)C(C)C)cc3)cn2)ccc1=O [Example 25] | ≥ 40% | – | –
10 | CCCn1cc(-n2cc(-c3ccc(S(=O)(=O)C(CC)CC)cc3Cl)cn2)ccc1=O [Example 20] | ≥ 40% | – | –
11 | CCCn1cc(-n2cc(-c3ccc(OC)cc3)cn2)ccc1=O [Example 46, 5-(4-(4-methoxyphenyl)-1H-pyrazol-1-yl)-1-propylpyridin-2(1H)-one] | 10 to 40% | – | –
12 | CCCn1cc(-n2cc(-c3ccc(S(=O)(=O)CC)cc3)cn2)ccc1=O [Example 51, 5-(4-(4-(ethylsulfonyl)phenyl)-1H-pyrazol-1-yl)-1-propylpyridin-2(1H)-one] | ≥ 40% | – | –
13 | CCCn1cc(-n2cc(-c3ccc(OC(C)C4CC4)cc3Cl)cn2)ccc1=O (centres unmarked) [Example 34] | ≥ 40% | – | –
14 | CCCn1cc(-n2cc(-c3ccc(OCC4(CO)COC4)nc3C)cn2)ccc1=O [Example 15] | – | ≥ 40% | ≤ 150 nM
15 | CCCn1cc(-n2cc(-c3ccc(S(=O)(=O)C4CCC(F)(F)CC4)cc3C)cn2)ccc1=O [Example 79] | – | 10 to 40% | –
16 | CCCn1cc(-n2cc(-c3ccc(OCC4CC4)cc3F)cn2)ccc1=O [Example 30] | – | 10 to 40% | –
17 | CCCn1cc(-n2cc(-c3cnc(S(=O)(=O)C(C)C)nc3)cn2)ccc1=O [Example 54, 5-(4-(2-(isopropylsulfonyl)pyrimidin-5-yl)-1H-pyrazol-1-yl)-1-propylpyridin-2(1H)-one] | – | < 10% | –
18 | CCCn1cc(-n2cc(-c3ccc(OC4CCCC4)nc3C)cn2)ccc1=O [Example 1, 5-(4-(6-(cyclopentyloxy)-2-methylpyridin-3-yl)-1H-pyrazol-1-yl)-1-propylpyridin-2(1H)-one] | ≥ 40% | – | –
19 | CCCn1cc(-n2cc(-c3ccc(OCC4CC4)c(F)c3)cn2)ccc1=O [Example 27] | – | < 10% | –
20 | CCCn1cc(-n2cc(-c3ccc(OCC4CC4)cc3Cl)cn2)ccc1=O [Example 26] | – | ≥ 40% | –
21 | CCCn1cc(-n2cc(-c3ccc(S(=O)(=O)CC)cc3Cl)cn2)ccc1=O [Example 55, 5-(4-(2-chloro-4-(ethylsulfonyl)phenyl)-1H-pyrazol-1-yl)-1-propylpyridin-2(1H)-one] | ≥ 40% | – | –
22 | CCCn1cc(-n2cc(-c3ccc(O[C@@H](C)CC)nc3C)cn2)ccc1=O [Example 9] | ≥ 40% | ≥ 40% | –
23 | CCCn1cc(-n2cc(-c3ccc(OC)cc3Cl)cn2)ccc1=O [Example 45, 5-(4-(2-chloro-4-methoxyphenyl)-1H-pyrazol-1-yl)-1-propylpyridin-2(1H)-one] | 10 to 40% | – | –
24 | CCCn1cc(-n2cc(-c3ccc(OCC4CC4)c(C)c3)cn2)ccc1=O [Example 29] | – | < 10% | –
25 | CCCn1cc(-n2cc(-c3ccc(OCC(F)(F)CO)nc3C)cn2)ccc1=O [Example 82] | – | ≥ 40% | –
26 | CCCn1cc(-n2cc(-c3ccc(O[C@H](C)CC)nc3C)cn2)ccc1=O [Example 10] | ≥ 40% | ≥ 40% | –
27 | CCCn1cc(-n2cc(-c3ccc(OCC(C)C)cc3F)cn2)ccc1=O [Example 31] | – | 10 to 40% | –

Row | Structure (SMILES) | inhibition at 1 µM (SCD1 expression) | inhibition at 0.32 µM (PCSK9 expression) | IC50 (PCSK9 expression)
28 | CCCn1cc(-n2cc(-c3ccc(S(=O)(=O)C(C)C)nc3C)cn2)ccc1=O [Example 52, 5-(4-(6-(isopropylsulfonyl)-2-methylpyridin-3-yl)-1H-pyrazol-1-yl)-1-propylpyridin-2(1H)-one] | – | < 10% | –
29 | CCCn1cc(-n2cc(-c3ccc(S(=O)(=O)C(C)C)cc3F)cn2)ccc1=O [Example 21] | ≥ 40% | – | –
30 | CCCn1cc(-n2cc(-c3ccc(S(=O)(=O)C4CCC4)cc3C)cn2)ccc1=O [Example 78] | – | ≥ 40% | ≤ 150 nM
31 | CCCn1cc(-n2cc(-c3ccc(OC(CC)CC)cc3Cl)cn2)ccc1=O [Example 38] | – | ≥ 40% | –
32 | CCCn1cc(-n2cc(-c3ccc(OC4CCC4)nc3C)cn2)ccc1=O [Example 7] | ≥ 40% | – | –
33 | CCCn1cc(-n2cc(-c3ccc(OCC4(CO)CC4)nc3C)cn2)ccc1=O [Example 13] | – | ≥ 40% | ≤ 150 nM
34 | CCCn1cc(-n2cc(-c3ccc(OCC4(CO)CCC4)cc3Cl)cn2)ccc1=O [Example 49, 5-(4-(2-chloro-4-((1-(hydroxymethyl)cyclobutyl)methoxy)phenyl)-1H-pyrazol-1-yl)-1-propylpyridin-2(1H)-one] | – | ≥ 40% | ≤ 150 nM
35 | CCCn1cc(-n2cc(-c3ccc(OC(C)CCO)cc3Cl)cn2)ccc1=O (centres unmarked) [Example 47, 5-(4-(2-chloro-4-((4-hydroxybutan-2-yl)oxy)phenyl)-1H-pyrazol-1-yl)-1-propylpyridin-2(1H)-one] | ≥ 40% | – | –
36 | CCCn1cc(-n2cc(-c3ccc(OCC4(CO)CCC4)nc3C)cn2)ccc1=O [Example 16] | – | ≥ 40% | ≤ 150 nM
37 | CCCn1cc(-n2cc(-c3cnc(OC(C)C)nc3)cn2)ccc1=O [Example 53, 5-(4-(2-isopropoxypyrimidin-5-yl)-1H-pyrazol-1-yl)-1-propylpyridin-2(1H)-one] | – | < 10% | –
38 | CCCn1cc(-n2cc(-c3ccc(OCC(C)C)cc3Cl)cn2)ccc1=O [Example 8] | – | ≥ 40% | 150 to 600 nM
39 | CCCn1cc(-n2cc(-c3ccc(OCC(C)(C)CO)cc3Cl)cn2)ccc1=O [Example 48, 5-(4-(2-chloro-4-(3-hydroxy-2,2-dimethylpropoxy)phenyl)-1H-pyrazol-1-yl)-1-propylpyridin-2(1H)-one] | ≥ 40% | – | –
40 | CCCn1cc(-n2cc(-c3ccc(OC(C)C)cc3Cl)cn2)ccc1=O [Example 40] | 10 to 40% | – | –
41 | CCCn1cc(-n2cc(-c3ccc(OCCCO)cc3Cl)cn2)ccc1=O [Example 33] | ≥ 40% | – | –
42 | CCCn1cc(-n2cc(-c3ccc(OCC4(CO)CC4)cc3Cl)cn2)ccc1=O [Example 32] | ≥ 40% | – | –
43 | CCCn1cc(-n2cc(-c3cc(F)c(OCC4CC4)c(F)c3)cn2)ccc1=O [Example 28] | – | < 10% | –
44 | CCCn1cc(-n2cc(-c3ccc(OCC(C)(C)CO)nc3C)cn2)ccc1=O [Example 14] | – | ≥ 40% | ≤ 150 nM
45 | CCCn1cc(-n2cc(-c3ccc(OC(C)CO)cc3Cl)cn2)ccc1=O (centres unmarked) [Example 37] | ≥ 40% | – | –
46 | CCCn1cc(-n2cc(-c3ccc(S(=O)(=O)C4CC4)cc3)cn2)ccc1=O [Example 64] | ≥ 40% | – | –
47 | CCCn1cc(-n2cc(-c3ccc(S(=O)(=O)CC4CC4)cc3Cl)cn2)ccc1=O [Example 19] | ≥ 40% | – | –
48 | CCCn1cc(-n2cc(-c3ccc(OC(C)C4CC4)nc3C)cn2)ccc1=O (centres unmarked) [Example 11] | ≥ 40% | – | –
49 | CCCn1cc(-n2cc(-c3ccc(OC(F)(F)F)cc3Cl)cn2)ccc1=O [Example 4] | ≥ 40% | – | –
50 | CCCn1cc(-n2cc(-c3ccc(O[C@@H](C)CC)cc3Cl)cn2)ccc1=O [Example 35] | ≥ 40% | – | –
51 | CCCn1cc(-n2cc(-c3ccc(OCC4(CO)COC4)cc3Cl)cn2)ccc1=O [Example 39] | – | ≥ 40% | 150 to 600 nM
52 | CCCn1cc(-n2cc(-c3ccc(OC4CC4)nc3C)cn2)ccc1=O [Example 12] | 10 to 40% | – | –
53 | CCCn1cc(-n2cc(-c3ccc(OCC4(CO)CC4)cc3C)cn2)ccc1=O [Example 81] | – | ≥ 40% | ≤ 150 nM
